Like-named read-outs stand apart in the source and are kept apart here.
Tests used:
HCC78 lung cancer cells = assay: HCC78 lung carcinoma cell growth, SRB assay; assay type: cell-based; details: Homo sapiens, HCC78, 144 h, read-out: IC50, proliferation of HCC78 cells
Method: (§1) Adherent cells were plated at 10,000 cells per well in 96-well plates in respective medium. […] For cell cycle analysis, cells were plated in 6 well plates and treated for the indicated time points. Cells were fixed, stained with propidium iodide, and distribution in different phases of cell cycle was evaluated using flow cytometry.
(§2) Protein was extracted and immunoblotted with phospho-ROS1 and total ROS1 antibodies. C. […] Ba/F3 cells stably transfected with vector or FIG-ROS1 were plated in equal numbers and growth of the cells after 3 days was measured by SRB assay (F).

HCC78 cells = assay: Cell cycle analysis of HCC78 cells, flow cytometry; assay type: cell-based; details: 1 µM
Method: as §1, §2

[1] = system: NIH3T3:FIG-ROS1 (S) cells; assay: NIH3T3:FIG-ROS1 (S) cell proliferation, SRB assay; assay type: cell-based
Method: as §1, §2

FIG-ROS1 = assay: Phosphorylation of ROS1 fused to FIG in NIH3T3 cells, Western blotting; assay type: cell-based; details: 3 days
Method: as §2

[2] = system: NIH3T3:FIG-ROS1 (S) xenograft
Method: Xenograft experiments were performed in nude mice as previously described. Briefly, a mixture of cells suspended in 0.0375 mL RPMI+10% FBS and 0.0625 mL Matrigel was injected s.c. into the hind left flank of each mouse.
Tumor volumes (A) and body weight (C) were measured biweekly. After sacrifice, tumor weights (B) were recorded and the amount of drug in serum and tumors were quantified using LC-MS/MS (D). *-significant at p<0.01; **-significant at p<0.001.

MMP-3 = assay: PMA- or NGF-induced MMP-3 expression in PC12 cells, realtime PCR; assay type: cell-based
Method: RNA was isolated using the Cells-to-Ct kit and realtime PCR was performed using TaqMan primers and probes on the ABI 7900 (Life Technologies). cDNA array experiments were conducted using TaqMan primers and probes on the ABI 7900 PCR machine.
Figure 3 GTx-186 inhibits inflammation in vitro. Cells were serum starved for 2 days, pre-treated with indicated concentrations of GTx-186 for 30 min and treated with growth factors or cytokines for 12–16 hrs. RNA was extracted, cDNA synthesized, and expression of inflammatory genes were measured by realtime PCR using Taqman primer and probes. All experiments were performed in triplicate and repeated at least three times.

[3] = system: croton oil-induced dermatitis; assay: Croton oil-induced atopic dermatitis; details: s.c., twice, 16 hrs and 2 hrs before croton oil
[4] = system: carrageenan-induced air-pouch inflammation; assay: Carrageenan-induced air pouch inflammation model; assay type: in vivo, Sprague Dawley rats; details: GTx-186 40 mg/kg; indomethacin 30 mg/kg s.c.
Method: Cytokine arrays were obtained from Ray Biotech (Norcross, GA) and arrays were processed according to manufacturer’s instructions. Briefly, arrays were incubated overnight with equal volume of air pouch exudates, washed, and incubated with secondary antibodies before developing using enhanced chemiluminescence.
Air was injected in the flanks of Sprague Dawley rats four days (20 mL) and two days (10 mL) before injection of carrageenan (1 mL of 2% carrageenan) in the pouch. Six hours after carrageenan administration, animals were sacrificed, 5 mL saline was injected into the pouch, pouch exudates were collected and the number of leukocytes and macrophages infiltrated into the pouch were counted under a microscope.
Figure 5 GTx-186 inhibits carrageenan-induced air-pouch inflammation in rats. A–C. A pouch was created subcutaneously in one flank of rats (n = 3) by injecting 20 ml air four days before and 10 ml air two days before treatment. […] Six hours after carrageenan administration, the animals were sacrificed, 5 ml saline was injected into pouch to flush the pouch fluid and the number of leukocytes and macrophages infiltrated into the pouch were counted under a microscope. TNF-α was measured using an ELISA in the pouch exudates from the experiment in panel B. (C). D. Effect of GTx-186 on inflammatory cytokines in carrageenan-induced air-pouch inflammation was measured in the pouch exudates using a cytokine array. Key cytokines were quantified and expressed as bar graphs on the right. […] 186-GTx-186; Indom-Indomethacin; Dex-Dexamethasone; TNF-Tumor Necrosis Factor; IL-Interleukin; CINC-Cytokine-Induced Neutrophil-Chemoattractant protein.

[5] = daily, GTx-186 20 mg/kg/day i.v., crizotinib 75 mg/kg p.o.

## C[C@@H](Oc1cc(-c2cnn(C3CCNCC3)c2)cnc1N)c1c(Cl)ccc(F)c1Cl [crizotinib]
HCC78 lung cancer cells
  IC50: 495 nM
HCC78 cells
  time of treatment at which cells were arrested in G0/G1 phase: 6 days
[1]; 72 h, read-out: IC50, proliferation of NIH3T3:FIG-ROS1 (S), 3 days
  IC50: 24 nM
[1]; read-out: IC50, proliferation of NIH3T3:FIG-ROS1 (S), 3 days
  IC50: 26 nM
FIG-ROS1
  phosphorylation of ROS1 fused to FIG: extremely effective in inhibiting
[2]; crizotinib 75 mg/kg p.o. daily
  tumor growth inhibition: 90%
[2]; [5]
  tumor growth (tumor volume): significantly reduced
  tumor weight: significantly reduced
[2]; mouse, in vivo
  body weight, visible toxicity: without affecting body weight

## C[C@@H]1C[C@H]2[C@@H]3CCC4=CC(=O)C=C[C@]4(C)[C@@]3(F)[C@@H](O)C[C@]2(C)[C@@]1(O)C(=O)CO [dexamethasone]
MMP-3
  MMP-3 expression induced by PMA: inhibited
[3]
  expression of inflammatory pathway genes, including NGF, in ear punches: markedly inhibited

## COc1ccc2c(c1)c(CC(=O)O)c(C)n2C(=O)c1ccc(Cl)cc1 [indomethacin]
[4]
  TNF-α levels in pouch exudates after carrageenan (ELISA, cytokine array): effectively inhibited
  carrageenan-induced CINC-1, CINC-2, IL-6, and LIX in pouch exudates (cytokine array): only GTx-186 inhibited
  carrageenan-induced CINC-3, TIMP-1, PDGFa, MMP-8, and MCP-1 in pouch exudates (cytokine array): neither GTx-186 nor indomethacin inhibited
  carrageenan-induced TNF-α, IL-1β, fractalkine, IL-13, and leptin in pouch exudates (cytokine array): inhibited
